This passage reports MIC results from ChEMBL document CHEMBL3739288, “Dimeric Octaketide Spiroketals from the Jellyfish-Derived Fungus Paecilomyces variotii J08NF-1” (2015).

Converted amounts (≈) assume the structure as drawn.

What all share (format): functional
In one assay the test system is Staphylococcus aureus. Put plainly: Antibacterial activity against Staphylococcus aureus SG511 after 24 hrs by broth microdilution method. To be noted: SG511, 24 h. (Dilution methods test growth across graded concentrations, often in twofold steps.)
The test system of the next assay is Vibrio ichthyoenteri. In words: Antibacterial activity against Vibrio ichthyoenteri after 24 hrs by broth microdilution method.
A further assay deals with Streptococcus iniae. Put plainly: Antibacterial activity against Streptococcus iniae after 24 hrs by broth microdilution method.

As to `CN(C)[C@@H]1C(O)=C(C(N)=O)C(=O)[C@@]2(O)C(O)=C3C(=O)c4c(O)cccc4[C@@](C)(O)[C@H]3C[C@@H]12` [TETRACYCLINE], the MIC (in general, the lowest concentration that inhibits growth of the organism) against Staphylococcus aureus amounted to 0.16 µg/mL (≈ 0.36 µM).
For `CCCCCCCCC(=O)c1cccc2c1C=C(CCCCCCC)[C@@]1(OCc3c(O)cccc31)O2`, the MIC with Vibrio ichthyoenteri, against Streptococcus iniae and with Staphylococcus aureus was above 40 µg/mL each time.
For `CN(C)[C@@H]1C(O)=C(C(N)=O)C(=O)[C@@]2(O)C(=O)C3=C(O)c4c(O)cccc4[C@@](C)(O)[C@H]3[C@H](O)[C@@H]12`, the MIC against Vibrio ichthyoenteri stood at 0.16 µg/mL (≈ 0.347 µM); against Streptococcus iniae it was 2.5 µg/mL (≈ 5.43 µM).
On to `CCCCCCCCC(=O)c1cccc2c1C=C(CCCCCCC)C1(OCc3c(O)cccc31)O2` (racemic), for which the MIC in the assay on Vibrio ichthyoenteri was 40 µg/mL (≈ 81.5 µM); in the assay on Streptococcus iniae it was above 40 µg/mL; with Staphylococcus aureus it was above 40 µg/mL.
Regarding `CCCCCCCCC(=O)c1cccc2c1C=C(CCCCCCC)[C@]1(OCc3c(O)cccc31)O2`, the MIC with Vibrio ichthyoenteri, in the assay with Streptococcus iniae and in the assay on Staphylococcus aureus was above 40 µg/mL each time.
